# In patent US6379083B1, “Method for the remediation of soil contaminated with organic halide compounds” (Hazama Corporation, priority 1998, dated 2002):
# Read-outs that look alike come from different tables or passages of the source.
# Assay: Solubility of volatile organic halide in carbonic acid aqueous solution (Example 3)
# Type: physicochemical
# Conditions: for solubility at 24 h: 20.7 °C, thermodynamic from solid, read-out: Detected amount of trichloroethylene (saturated solubility)
# Experimental: Using a carbonic acid aqueous solution having carbonated ion-concentration of 7,700 mg/L (i.e., 7,700 ppm) and natural water (trade name: Eapin; carbonated ion-concentration of 0 mg/L), four kinds of carbonic acid aqueous solutions (i.e., carbonated ion-concentration: 340 mg/L, 920 mg/L, 1700 mg/L and 7,700 mg/L) were prepared.
# Using a syringe, 0.14 g of excess trichloroethylene was added to the water or solution, and each linked part in the Glass-Vials was sealed by the use of Teflon tape. The mixture was stirred for 30 minutes using a magnetic stirrer, and allowed to stand for 24 hours. Thereafter, a supernatant fraction was quickly collected and extracted to give trichloroethylene. These procedures were performed at temperature of 20.7° C.
# As for the above natural water and carbonic acid aqueous solutions before the injection into the glass-bialbin, their carbonated ion-concentrations were measured by means of neutralization titration. The titration was conducted according to strontium chloride/monobasic acid-base titration described in JIS K 0101 25.
# To the supernatant fraction obtained above, n-hexane for test of remaining agriculture chemical was added in the same amount as the fraction, and vigorously stirred to give an n-hexane layer. The layer was analyzed by a gas chromatography in the following conditions:
# Analyzer: GC-17A type available from Shimadzu Corp.
# Column: AQUATAC 75 m×0.53 mmφ
# Column Temperature: 210° C.
compound,measurement,setting,value
ClC=C(Cl)Cl [trichloroethylene],solubility at 24 h,"aqueous buffer, Carbonated ion concentration 340 mg/L",780 µg/mL
same,solubility at 24 h,"aqueous buffer, Carbonated ion concentration 920 mg/L",1000 µg/mL
same,solubility at 24 h,"aqueous buffer, Carbonated ion concentration 7700 mg/L",1300 µg/mL
same,Detected amount of trichloroethylene (saturated solubility),"Carbonated ion concentration 1700 mg/L, 20.7° C.",1100 µg/mL
same,solubility at 24 h,"natural water (Eapin; carbonated ion concentration 0 mg/L), water, Carbonated ion concentration 0 mg/L (natural water)",750 µg/mL
